Measured values: publication PMC11719724, “Antimicrobial Peptides from Porcine Blood Cruor Hydrolysates as a Promising Source of Antifungal Activity” (Foods, 2024)
Where no end group is shown, it is not given here.

How the values were obtained:
[1] = test system: Rhodotorula mucilaginosa 27173; type: cell-based; settings: Figure 1 pictures A,B; peptides 2.5 mM, natamycin 50 µg/mL, 80 µL per well; 25 °C, 48 h
Description: (§1) The sixteen peptides were initially tested using the agar well diffusion method against the indicator strains E. coli, L. ivanovii, R. mucilaginosa, and Paecilomyces spp., as previously described in [22]. To perform this procedure, 25 µL of the prepared culture suspension (adjusted to 10^6 CFU/mL for bacteria and yeasts and 10^5 CFU/mL for molds) was diluted in 25 mL of Tryptic Soy Broth (TSB) (for bacterial strains) or Potato Dextrose Broth (PDB) (for fungal strains) supplemented with 0.75% agar and poured into a Petri dish (90 mm diameter) until dried. The culture media of the suspension was prepared using TSB for bacterial cultures and peptone water (10% w/v) supplemented with 0.1% Tween 80 (w/w) for fungal cultures as it enhances spore dispersion. Subsequent to the drying process, wells were formed using a sterile 5 mL pipette. A volume of 80 µL of each peptide at a concentration of 2.5 mM was added to each well. Ampicillin (MilliporeSigma Canada Ltd., Oakville, ON, Canada), at a concentration of 256 µg/mL and natamycin (MilliporeSigma Canada Ltd., Oakville, ON, Canada) at 50 µg/mL, were used as positive controls for bacterial and fungal tests, respectively, as they are wide-spectrum antimicrobials. The solvent of the peptides was included as negative control in all experiments. […] Thereafter, inhibition halos were measured, and images were captured using a Biorad Chemidoc camera.

[2] = test system: Paecilomyces spp. 5332-9a; type: cell-based; settings: Figure 1 pictures C,D; peptides 2.5 mM, natamycin 50 µg/mL, 80 µL per well; 25 °C, 48 h
Description: as §1

[3] = test system: Rhodotorula mucilaginosa 27173; type: cell-based; settings: 48 h
Description: (§2) A microtitration assay was conducted to determine the minimum inhibitory concentration (MIC) of the peptides against the collection of indicator microorganisms. The growth medium used for the isolated bacterial and fungal strains was TSB and PDB, respectively. In brief, 175 µL of the culture medium was added to the wells of column 1 (negative growth control) and 125 µL to the wells of columns 2–12. Subsequently, 125 µL of each peptide (stock concentration of 2.5 mM), positive control (stock concentration of 256 µg/mL for ampicillin in bacterial tests and 50 µg/mL for natamycin in fungal tests) and negative control (10% DMSO in H2O (v/v)) were added to the wells in column 3 and mixed by pipetting up and down 10 times. A total of 125 µL from column 3 was removed and transferred to column 4, where serial dilutions were performed until the final dilution reached column 12. The final volume was then discarded. […] Subsequently, 50 µL of the indicator strain suspension (at a concentration of 10^5 CFU/mL for yeasts and bacteria and 10^4 CFU/mL for molds) was introduced to all the wells, except for column 1. The culture medium used for culture suspension was identical to that employed in the agar well diffusion method. The microplate was incubated for 24 h at 37 °C for bacterial isolates and for 48 h at 25 °C for fungal isolates.
(§3) The minimal bactericidal/fungicidal concentration (MBC/MFC) was calculated by transferring 10 µL of the wells where no growth could be detected to agar plates (TSA for bacterial isolates and Dichloran Rose Bengal Chloramphenicol Agar (DBRC)) (BD Difco Laboratories, Sparks, MD, USA). After incubation (24 h, 37 °C for bacteria and 48 h, 25 °C, for fungi), the peptide concentration with which no growth was observed, was considered to be the MBC/MFC. The MBC/MIC and MFC/MIC ratios were calculated in order to ascertain the effect of the peptides. A ratio of ≤4 is indicative of bactericidal/fungicidal efficacy, whereas a ratio of >4 indicates bacteriostatic/fungistatic activity.

Eurotium rubrum 3071.14a = type: cell-based; settings: 48 h
Description: as §2, §3

[4] = test system: Paecilomyces spp. 5332-9a; type: cell-based; settings: 48 h
Description: as §2, §3

Mucor racemosus LMA-722 = type: cell-based; settings: 48 h
Description: as §2, §3

[5] = test system: Penicillium chrysogenum LMA-212; type: cell-based; settings: 48 h
Description: as §2, §3

[6] = test system: Debaryomyces hansenii LL11042; type: cell-based; settings: 48 h
Description: as §2, §3

A. versicolor LMA-370 = type: cell-based, Aspergillus versicolor; settings: 48 h
Description: as §2, §3

P. commune 27163 = type: cell-based, Penicillium commune; settings: 48 h
Description: (§4) A microtitration assay was conducted to determine the minimum inhibitory concentration (MIC) of the peptides against the collection of indicator microorganisms. The growth medium used for the isolated bacterial and fungal strains was TSB and PDB, respectively. In brief, 175 µL of the culture medium was added to the wells of column 1 (negative growth control) and 125 µL to the wells of columns 2–12. Subsequently, 125 µL of each peptide (stock concentration of 2.5 mM), positive control (stock concentration of 256 µg/mL for ampicillin in bacterial tests and 50 µg/mL for natamycin in fungal tests) and negative control (10% DMSO in H2O (v/v)) were added to the wells in column 3 and mixed by pipetting up and down 10 times. A total of 125 µL from column 3 was removed and transferred to column 4, where serial dilutions were performed until the final dilution reached column 12. The final volume was then discarded. […]
(§5) The minimal bactericidal/fungicidal concentration (MBC/MFC) was calculated by transferring 10 µL of the wells where no growth could be detected to agar plates (TSA for bacterial isolates and Dichloran Rose Bengal Chloramphenicol Agar (DBRC)) (BD Difco Laboratories, Sparks, MD, USA). […] The MBC/MIC and MFC/MIC ratios were calculated in order to ascertain the effect of the peptides. […]

C. guilliermondii 27168 = type: cell-based, Candida guilliermondii; settings: 48 h
Description: as §4, §5

Compound	MFC, Activity Against R. mucilaginosa [3] [µM]	MIC, Activity Against R. mucilaginosa [3] [µM]	MIC, Eurotium rubrum (Eurotium rubrum 3071.14a) [µM]	MFC, Activity Against Paecilomyces spp. [4] [µM]	MIC, Activity Against Paecilomyces spp. [4] [µM]	MIC, Penicillium chrysogenum [5] [µM]	MIC, Debaryomyces hansenii [6] [µM]	MIC, Aspergillus versicolor (A. versicolor LMA-370) [µM]	further results
C[C@@H]1C/C=C/C=C/C=C/C=C/[C@H](O[C@@H]2O[C@H](C)[C@@H](O)[C@H](N)[C@@H]2O)C[C@@H]2O[C@](O)(C[C@@H](O)C[C@H]3O[C@@H]3/C=C/C(=O)O1)C[C@H](O)[C@H]2C(=O)O [Natamycin, natamycin]	–	–	–	–	–	–	–	–	inhibition halo (qualitative) [1]: Clear inhibition halos; inhibition halo (qualitative) [2]: Clear inhibition halos
FQKVVAGVANALAHKYH [Pep5]	78 ± 0	39 ± 0	39 ± 0	9 ± 0	9 ± 0	312 ± 0	156 ± 0	39 ± 0	MFC, Eurotium rubrum (Eurotium rubrum 3071.14a): 78 ± 0 µM; MFC, Mucor racemosus (Mucor racemosus LMA-722): 312 ± 0 µM; MIC, Mucor racemosus (Mucor racemosus LMA-722): 312 ± 0 µM; MFC, Debaryomyces hansenii [6]: 156 ± 0 µM; MFC, Aspergillus versicolor (A. versicolor LMA-370): 78 ± 0 µM; MFC, Penicillium commune (P. commune 27163): 312 ± 0 µM; MIC, Penicillium commune (P. commune 27163): 312 ± 0 µM; MFC, Candida guilliermondii (C. guilliermondii 27168): 625 ± 0 µM; MIC, Candida guilliermondii (C. guilliermondii 27168): 312 ± 0 µM
FRLLGNVIVVV [Pep4]	–	375	312 ± 0	625 ± 0	625 ± 0	156 ± 0	312 ± 0	312 ± 0	–
LAHKYH [Pep15]	1250 ± 0	1250 ± 0	–	–	1250 ± 0	–	–	–	–
NALAHKYH [Pep3]	625 ± 0	625 ± 0	–	1250 ± 0	625 ± 0	–	–	–	–
QKVVAGVANALAHKYH [Pep14]	78 ± 0	78 ± 0	–	78 ± 0	78 ± 0	–	–	–	–
